From article PMC6256002 (British Journal of Clinical Pharmacology, 2018)
Like-named read-outs stand apart in the source and are kept apart here. Marks after values point to notes of the source that are not given here.

Columns and labels:
[1] = in humans; filgotinib unchanged, metabolite as such; no reference given; cited from earlier work
[2] = Effect of renal impairment; details: for AUC0–24 h / Ae0–24 h (amount excreted in the urine over 24 h) / CLR (renal clearance) / t½,λz (apparent terminal half-life) / R (metabolite-to-parent ratio, AUC0–24 h) / tmax: 100 mg QD; for AUC0–24 h / Ae0–24 h (amount excreted in the urine over 24 h) / CLR (renal clearance) / t½,λz (apparent terminal half-life) / R (metabolite-to-parent ratio, AUC0–24 h) / tmax / Cmax: day 10; for AUC0–24 h / Ae0–24 h (amount excreted in the urine over 24 h) / CLR (renal clearance) / t½,λz (apparent terminal half-life) / Cmax: arithmetic mean (CV%); for R (metabolite-to-parent ratio, AUC0–24 h): geometric mean (CV%); for tmax: median (min–max); for Cmax: filgotinib 100 mg QD 10 days, tablet, fasted
[3] = for AUC0–24 h / Ae0–24 h (amount excreted in the urine over 24 h) / CLR (renal clearance) / t½,λz (apparent terminal half-life) / R (metabolite-to-parent ratio, AUC0–24 h) / tmax: 100 mg QD; for AUC0–24 h / Ae0–24 h (amount excreted in the urine over 24 h) / CLR (renal clearance) / t½,λz (apparent terminal half-life) / R (metabolite-to-parent ratio, AUC0–24 h) / tmax / Cmax: day 10; for AUC0–24 h / Ae0–24 h (amount excreted in the urine over 24 h) / CLR (renal clearance) / t½,λz (apparent terminal half-life) / Cmax: arithmetic mean (CV%); for R (metabolite-to-parent ratio, AUC0–24 h): geometric mean (CV%); for tmax: median (min–max); for Cmax: filgotinib 100 mg QD 10 days, capsule, fed, N = 10
JAK1 = details: human whole-blood assay; cited from earlier work
[4] = ≥75 years relative to 40–50 years, point estimate [90% CI]

Nc1nc2cccc(-c3ccc(CN4CCS(=O)(=O)CC4)cc3)n2n1 [Metabolite]
Fraction excreted in the urine [1]: ≥ 50% | AUC0–24 h ([2]; mild RI): 30.1 (29.3) μg.h ml^–1 | Ae0–24 h (amount excreted in the urine over 24 h) ([2]; mild RI): 35.7 (40.3) % dose | CLR (renal clearance) ([2]; mild RI): 1.21 (42.1) l h^–1 | t½,λz (apparent terminal half-life) ([2]; mild RI): 25.4 (24.8) h | R (metabolite-to-parent ratio, AUC0–24 h) ([2]; mild RI): 15.9 (22.0) | tmax ([2]; mild RI): 3.3 (1.5–5) h | AUC0–24 h ([2]; moderate RI): 42.7 (38.4) μg.h ml^–1 | Ae0–24 h (amount excreted in the urine over 24 h) ([2]; moderate RI): 29.9 (24.1) % dose | CLR (renal clearance) ([2]; moderate RI): 0.781 (47.8) l h^–1 | t½,λz (apparent terminal half-life) ([2]; moderate RI): 31.7 (24.9) h | R (metabolite-to-parent ratio, AUC0–24 h) ([2]; moderate RI): 16.7 (35.8) | tmax ([2]; moderate RI): 2.3 (0.5–5) h | AUC0–24 h ([2]; normal renal function): 24.9 (31.7) μg.h ml^–1 | Ae0–24 h (amount excreted in the urine over 24 h) ([2]; normal renal function): 37.4 (11.6) % dose | CLR (renal clearance) ([2]; normal renal function): 1.59 (24.5) l h^–1 | t½,λz (apparent terminal half-life) ([2]; normal renal function): 20.8 (17.1) h | R (metabolite-to-parent ratio, AUC0–24 h) ([2]; normal renal function): 13.8 (21.5) | tmax ([2]; normal renal function): 3 (2–4) h | AUC0–24 h ([2]; severe RI): 66.6 (18.5) μg.h ml^–1 | Ae0–24 h (amount excreted in the urine over 24 h) ([2]; severe RI): 32.1 (9.36) % dose | CLR (renal clearance) ([2]; severe RI): 0.488 (10.6) l h^–1 | t½,λz (apparent terminal half-life) ([2]; severe RI): 43.6 (12.6) h | R (metabolite-to-parent ratio, AUC0–24 h) ([2]; severe RI): 26.0 (20.4) | tmax ([2]; severe RI): 3 (3–4) h | Cmax ([2]; mild RI, N = 6): 1.54 (31.3) μg ml^–1 | Cmax ([2]; moderate RI, N = 6): 2.35 (35.4) μg ml^–1 | Cmax ([2]; normal renal function, N = 9): 1.63 (31.9) μg ml^–1 | Cmax ([2]; severe RI, N = 3): 3.43 (14.6) μg ml^–1 | CLR drop compared with subjects with normal renal function ([2]; moderate RI vs normal renal function): 51% | Steady-state plasma concentrations reached ([2]; moderate and severe RI): 5 days | Steady-state plasma concentrations reached ([2]; normal renal function and mild RI): 3 days | CLR lower (drop) compared with subjects with normal renal function ([2]; severe RI vs normal renal function): 69% | AUC0–24 h ([3]; age 40–50 years): 29.4 (27.3) μg.h ml^–1 | Ae0–24 h (amount excreted in the urine over 24 h) ([3]; age 40–50 years): 34.3 (22.3) ^b % dose | CLR (renal clearance) ([3]; age 40–50 years): 1.25 (19.3) ^b l h^–1 | t½,λz (apparent terminal half-life) ([3]; age 40–50 years): 17.8 (17.9) h | Ae0–24 h (amount excreted in the urine over 24 h) ([3]; age 40–50 years, listed as metabolite): 34.3 % dose | R (metabolite-to-parent ratio, AUC0–24 h) ([3]; age 40–50 years): 18.8 (25.1) | tmax ([3]; age 40–50 years): 4.0 (2.0–5.0) h | AUC0–24 h ([3]; age 65–74 years): 34.2 (17.3) μg.h ml^–1 | Ae0–24 h (amount excreted in the urine over 24 h) ([3]; age 65–74 years): 37.4 (13.2) ^c % dose | CLR (renal clearance) ([3]; age 65–74 years): 1.13 (20.9) ^c l h^–1 | t½,λz (apparent terminal half-life) ([3]; age 65–74 years): 24.7 (23.3) h | R (metabolite-to-parent ratio, AUC0–24 h) ([3]; age 65–74 years): 19.4 (22.0) | tmax ([3]; age 65–74 years): 3.0 (3.0–5.0) h | AUC0–24 h ([3]; age ≥75 years): 40.9 (21.9) μg.h ml^–1 | Ae0–24 h (amount excreted in the urine over 24 h) ([3]; age ≥75 years): 37.6 (15.4) ^b % dose | CLR (renal clearance) ([3]; age ≥75 years): 0.926 (29.5) ^b l h^–1 | t½,λz (apparent terminal half-life) ([3]; age ≥75 years): 23.5 (21.2) h | Ae0–24 h (amount excreted in the urine over 24 h) ([3]; age ≥75 years, listed as metabolite): 37.6 % dose | R (metabolite-to-parent ratio, AUC0–24 h) ([3]; age ≥75 years): 18.4 (16.4) | tmax ([3]; age ≥75 years): 5.0 (3.0–5.0) h | Cmax ([3]; age 40–50 years): 1.69 (26.5) μg ml^–1 | Cmax ([3]; age 65–74 years): 1.90 (15.5) μg ml^–1 | Cmax ([3]; age ≥75 years): 2.20 (19.4) μg ml^–1 | Apparent elimination half-life across age groups ([3]; mean over the three age groups): approximately 22 h | Time to steady state ([3]; predose (trough) concentrations, regardless of the age group): ≤ 4 dosing days | Fold-change in steady-state AUC0–24 h [3, 4]: 1.33 fold | Fold-change in steady-state Cmax [3, 4]: 1.25 fold | Reduced potency versus filgotinib (JAK1): 19 fold
